Test results from PubChem BioAssay AID1959 (Broad Institute, 2009).
The source made the active and inactive calls.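 Rule for the calls: active = growth-inhibition EC50 no more than tenfold above the top tested dose; inconclusive = flat fit between 30% and 70% inhibition, or unreliable fit; inactive = EC50 more than tenfold above the top tested dose.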

Test system: E. coli NEB5alpha growth, BacTiter-Glo luminescence, 4 h
Assay: Escherichia coli growth inhibition, dose response, counter-screen for MEX-5/POS-1 RNA-binding inhibitor project, luminescence, NEB5alpha (AID 1959);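 note: pUC19-transformed ampicillin-resistant cells grown in LB with ampicillin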

`NS(=O)(=O)c1ccc(NC(=S)NNC(=O)CCC(=O)Nc2ccccc2Cl)cc1` was tested, and the EC50 was > 11 µM (inactive).
In the case of `CSc1nnc(SCc2nc3sc(C(=O)O)c(C)c3c(=O)[nH]2)s1`, the EC50 is reported as > 11 µM (inactive).
`CC(C)c1ccc(/C=C(\NC(=O)c2ccccc2)C(=O)NCCN2CCOCC2)cc1` was tested, and the EC50 was > 11 µM (inactive).
With `Cc1ccc(C(=O)C2=C(O)C(=O)N(Cc3ccco3)C2c2ccc(N(C)C)cc2)o1` (stereo unspecified) the EC50 was > 11 µM (inactive).
For `Cc1ccccc1-n1c(O)c(/C=N/NC(=O)c2ccccc2O)c(=O)[nH]c1=S`, the EC50 was > 11 µM (inactive).
For `Cn1cc(C=C2C(=O)NC(=O)NC2=O)c2ccccc21`, the EC50 was > 11 µM (inactive).
With `COc1ccc(C2C(C#N)=C(/N=C/N3CCOCC3)OC3=C2C(=O)CC(C)(C)C3)cc1OC` (stereo unspecified) the EC50 was > 11 µM (inactive).
For `C=CCn1cc(C=C2C(=O)NC(=O)NC2=O)c2ccccc21`, the EC50 was > 11 µM (inactive).
`CCOC(=O)N1CCN(C2=Nc3cccc4cccc2c34)CC1` was tested, and the EC50 was > 11 µM (inactive).
In the case of `COC(=O)c1ccc(C)c(-n2c(C)cc(C=O)c2C)c1`, the EC50 is reported as > 11 µM (inactive).
In the case of `COc1cc(C(=O)NC(c2ccccc2)c2ccccc2)cc(OC)c1C`, the EC50 is reported as > 11 µM (inactive).
For `COC(=O)CCC(=O)OC1(C)C(=O)C2=COC(c3ccc(OC)cc3)=CC2=C(Br)C1=O` (stereo unspecified), the EC50 was > 11 µM (inactive).
With `Cc1cc(/C=C(/C#N)c2nc3ccccc3[nH]2)c(C)n1-c1cc(C(=O)O)cc(C(=O)O)c1` the EC50 was > 11 µM (inactive).
With `CC1=NOC(=O)/C1=C\c1ccc2c(c1)OCO2` the EC50 was > 11 µM (inactive).
`COc1ccc(OC)c(N=Cc2c(O)c3ccccc3oc2=O)c1` was tested, and the EC50 was > 11 µM (inactive).
For `COC(=O)CCCC1=CC2=CC(=O)C(C)(O)C(=O)C2=CO1` (stereo unspecified), the EC50 was > 11 µM (inactive).
`CN1C(=O)/C(=C\c2ccc(N3CCCCC3)o2)C(=O)NC1=S` was tested, and the EC50 was > 11 µM (inactive).
`COc1ccc(NC(=O)/C=C/c2cccc(Br)c2)cn1` was tested, and the EC50 was > 11 µM (inactive).
With `CCOC1(OCC)N=C(N)C2(C#N)C(c3ccc(NC(C)=O)cc3)C12C#N` (stereo unspecified) the EC50 was > 11 µM (inactive).
With `NC(=O)c1c(NC(=O)c2c(F)cccc2F)sc2c1CCN(Cc1ccccc1)C2` the EC50 was > 11 µM (inactive).
With `Cc1ccc(-c2[nH]c3cc(C(N)=O)ccc3c(=O)c2O)cc1` the EC50 was > 11 µM (inactive).
In the case of `O=c1cc(-c2ccc(O)c(O)c2)oc2cc(O)cc(O)c12`, the EC50 is reported as > 11 µM (inactive).
Work on `C[C@H]1c2cccc(O)c2C(O)=C2C(=O)[C@]3(O)C(O)=C(C(N)=O)C(=O)[C@@H](N(C)C)C3[C@@H](O)C21` (stereo partly specified) yielded an EC50 of 4.58 µM.
For `CCOC(=O)C1CCN(C(=O)c2ccc3c(c2)NC(=O)/C(=C\c2ccc(C)cc2)S3)CC1`, the EC50 was > 11 µM (inactive).
In the case of `COc1ccc(OC)c(N=Cc2c(O)n(Cc3ccccc3)c(=S)[nH]c2=O)c1`, the EC50 is reported as > 11 µM (inactive).
For `N=c1c(C(=O)NCC2CCCO2)cc2c(=O)n3ccccc3nc2n1Cc1ccccc1Cl` (stereo unspecified), the EC50 was > 11 µM (inactive).
`CCOc1cc(/C=C(\C#N)c2nc3ccccc3[nH]2)ccc1OC(C)C(=O)O` (stereo unspecified) was tested, and the EC50 was > 11 µM (inactive).
With `CCC(=O)OC1(C)C(=O)C=C2C=C(CCCCNC(=O)OC(C)(C)C)OC=C2C1=O` (stereo unspecified) the EC50 was > 11 µM (inactive).
In the case of `COc1ccc2nc3cc(Cl)ccc3c(Nc3cc(CN4CCCC4)c(O)c(CN4CCCC4)c3)c2n1`, the EC50 is reported as > 11 µM (inactive).
In the case of `COc1ccc(C(=O)/C=C/Nc2ccc([N+](=O)[O-])cc2C)c(OC)c1`, the EC50 is reported as > 11 µM (inactive).
With `COc1cc2c3nnc(-c4ccc(F)cc4)c-3cn(Cc3ccc(C)cc3)c2cc1OC` the EC50 was > 11 µM (inactive).
For `CC(=O)Oc1oc(-c2ccccc2)nc1C=Nc1ccc(N(C)C)cc1`, the EC50 was > 11 µM (inactive).
In the case of `Cc1cccc(C)c1NC(=O)CN1C(=O)S/C(=C\c2cccn2-c2cccc(C(=O)O)c2)C1=O`, the EC50 is reported as > 11 µM (inactive).
In the case of `Cc1nn(C(C)C(=O)N2CCOCC2)c(=O)c2nn(-c3ccccc3)c(C)c12` (stereo unspecified), the EC50 is reported as > 11 µM (inactive).
For `Oc1ccc(/C=N/NC(=S)Nc2cccnc2)c(O)c1O`, the EC50 was > 11 µM (inactive).
`Cc1ccc(/C=C/C(=O)c2ccc(N3CCOCC3)cc2)s1` was tested, and the EC50 was > 11 µM (inactive).
`COc1cccc(C(=O)NCC(=O)NNc2ncnc(N)c2[N+](=O)[O-])c1` was tested, and the EC50 was > 11 µM (inactive).
`Cc1cccc(NC(=O)/C(C#N)=C\c2cc(C)n(-c3ccc(C(=O)O)cc3)c2C)c1` was tested, and the EC50 was > 11 µM (inactive).
In the case of `CNc1nnc(-c2cc3ccccc3oc2=O)s1`, the EC50 is reported as > 11 µM (inactive).
In the case of `CCOCCCNC(=O)CCC(=O)NNc1nc2ccccc2c2nc(C)nn12`, the EC50 is reported as > 11 µM (inactive).
For `CCN(CC)CCN=Cc1c(O)n(CCc2ccccc2)c(=O)[nH]c1=O`, the EC50 was > 11 µM (inactive).
`N=c1c(S(=O)(=O)c2ccc(Cl)cc2)cc2c(=O)n3ccccc3nc2n1CCc1ccccc1` was tested, and the EC50 was > 11 µM (inactive).
For `Cc1ccc(N2C(=O)/C(=C/c3ccc(CN(CCC#N)S(C)(=O)=O)o3)C(=O)NC2=S)cc1C`, the EC50 was > 11 µM (inactive).
With `O=C(O)CCN1C(=O)/C(=C/c2ccc(-c3nc4ccccc4s3)o2)SC1=S` the EC50 was > 11 µM (inactive).
`COC(=O)C1CSc2[nH]c(=O)sc2C1c1ccccc1` (stereo unspecified) was tested, and the EC50 was > 11 µM (inactive).
For `Cc1cc(/C=C(/C#N)c2nc3ccccc3[nH]2)c(C)n1-c1ccccc1C(=O)O`, the EC50 was > 11 µM (inactive).
For `COc1ccc2nc(SCC(=O)Nc3nonc3C)[nH]c2c1`, the EC50 was > 11 µM (inactive).
For `COc1cc(C2C(C#N)=C(N)OC3=C2C(=O)CCC3)cc(OC)c1OC(=O)N1CCOCC1` (stereo unspecified), the EC50 was > 11 µM (inactive).
`Cc1nn(-c2ccccc2)c(N2CCCC2)c1/C=C1\N=C(c2ccc(F)cc2)OC1=O` was tested, and the EC50 was > 11 µM (inactive).
With `Cc1cccc(NC2=Nc3ccccc3N3C2=Nc2c(c(C)nn2-c2ccccc2)C3c2ccc(O)c(O)c2)c1` (stereo unspecified) the EC50 was > 11 µM (inactive).
For `Oc1ccc(/C=N/Nc2ccc(Cl)nn2)c(O)c1O`, the EC50 was > 11 µM (inactive).
With `CCOc1cc(C2C(C#N)=C(N)OC3=C2C(=O)CC(C)(C)C3)cc([N+](=O)[O-])c1O` (stereo unspecified) the EC50 was > 11 µM (inactive).
`CC(C)(C)OC(=O)NCCCCC1=CC2=CC(=O)C(C)(OC(=O)c3cnc4ccccc4n3)C(=O)C2=CO1` (stereo unspecified) was tested, and the EC50 was > 11 µM (inactive).
For `CCN(CC)c1ccc(/C=C2\C(=O)NC(=S)N(C)C2=O)o1`, the EC50 was > 11 µM (inactive).
`O=c1[nH]c(=O)n(-c2ccc(Cl)cc2)c(O)c1C=NCCN1CCCCC1` was tested, and the EC50 was > 11 µM (inactive).
In the case of `CCC(Oc1ccccc1)C(=O)Nc1ccccn1` (stereo unspecified), the EC50 is reported as > 11 µM (inactive).
For `CC1(C)CC(=O)C2=C(C1)OC(N)=C(C#N)[C@@H]2c1ccccc1[N+](=O)[O-]`, the EC50 was > 11 µM (inactive).
With `Oc1ccc(N=Nc2ccccc2-c2nn[nH]n2)c(O)c1` the EC50 was > 11 µM (inactive).
With `CCCCn1c(O)c(/C=N/NC(=O)c2ccncc2)c(=O)[nH]c1=O` the EC50 was > 11 µM (inactive).
In the case of `COc1ccc2c(-c3ccccc3)cc(SCC(N)=O)nc2c1`, the EC50 is reported as > 11 µM (inactive).
With `Cc1cccc(N(C)S(=O)(=O)c2nnc(NC(=O)c3ccco3)s2)c1` the EC50 was > 11 µM (inactive).
With `COc1ccc(NC(=O)C2Cc3ccccc3CN2C(=O)c2ccccc2)cn1` (stereo unspecified) the EC50 was > 11 µM (inactive).
`CCCCC1(C)OC(=O)C(=Cc2ccc(N(CC)CC)cc2)C(=O)O1` (stereo unspecified) was tested, and the EC50 was > 11 µM (inactive).
For `C/C(N)=C(/C#N)C(=O)CSc1ncnc2ccccc12`, the EC50 was > 11 µM (inactive).
In the case of `Cc1c(C(=O)O)cccc1-n1c(C)cc(C=O)c1C`, the EC50 is reported as > 11 µM (inactive).
In the case of `Oc1c(Cl)cc(Cl)c(Cl)c1Cc1c(O)c(Cl)cc(Cl)c1Cl`, the EC50 is reported as > 11 µM (inactive).
